Measurements from US10016382B2, “Method for decreasing skeletal muscle damage and/or oxidative stress in mammals” (LONZA INC., priority 2014, dated 2018).
Values joined by “and” are separate entries in the source; they are usually repeats but may differ in a detail not shown here. Equal entries are not always repeated.

What was measured:
[1] = system: Labrador Retrievers; test: Energy expenditure on treadmill (Oxymax open-circuit calorimeter), Example 2 part three; format: in vivo, dog; settings: for Max energy expenditure / Mean energy expenditure: females
Protocol: Sixteen Labrador Retrievers ranging in age from 1.5 to 3 years were fed low carnitine basal diets with and without added L-carnitine for a 37 week period that included part one and two of the study. Eight (4 male and 4 female) of the test L-carnitine dogs were each fed 3.75 g sugar and 250 mg of L-carnitine, while the other eight dogs (4 male and 4 female) were fed only 4 g of sugar each day for the experimental period. The sixteen test dogs were fed the same diet for parts one, two, and three of the study. During part three of the study, the 16 test dogs were exclusively exercised on the industry sized canine treadmill. Initial Oxymax data was developed for each of the test dogs at various times and speeds in order to determine appropriate speeds on the treadmill required to achieve maximum VO2 concentration. The dogs were run for 15 minutes at 6.5 mph to determine VO2 max. The 16 test dogs were then ran at 50% VO2 max (equivalent to 4 mph) on the treadmill for 30 minutes to determine total energy expenditure (heat production). The system used to acquire information on volume of oxygen consumption and energy expenditure was an Open-Circuit calorimeter, which employed air from the surrounding environment. A mask specially designed for dogs was used to recover the gas sample and ventilate the dog. A small sample was drawn for gas analysis and dried to assure that the readings were made in a sample that was not under the influence of water vapor air exiting the chamber. The O2 and CO2 sensors were connected to software, and instant values of O2 and CO2 were measured. The 16 test dogs (8 L-carnitine dogs, 4 male and 4 female, and 8 control dogs, 4 male and 4 female) were exercised at a warm up speed of 2 mph for 5 minutes prior to running at VO2 max for 15 minutes at 6.5 mph. The next week, the test dogs ran again at a warm up speed of 2 mph for 5 minutes and then at 50% VO2 max for 30 minutes at 4 mph. Energy expenditure was calculated using the formula for dogs (EE (kcal/d)=3.94 VO2+1.11 V CO2) (Weir, […]). The maximum and mean energy expenditure was also calculated. Energy expenditure was reported at Kcal/metabolic body weight (Kg^0.75)/d as normally expressed in the literature for dogs.

[2] = system: Labrador Retrievers; test: Activity by Actical monitors, short (sprint) runs, Example 1; format: in vivo, dog; settings: Ex.1, 250 mg/d; for Activity short runs, Least Sq Mean: average of weekly short runs over 13 wk, mixed model
Excerpt: Each test dog wore an Actical activity monitor from Philips Respironics on a collar for the short higher intensity runs and also wore an Actical activity monitor for the weekly longer endurance runs. The activity data was downloaded into spread sheets along with each dogs identity. Twenty four hours after each long run during the 13 wk running program each of the dogs were scored by kennel staff for soreness or any type of lameness The exercise program was decreased in a tapering program during wk 11 and 12 to allow the dogs to rest for the final long run completed on wk 13. Pre-run serum samples from each test dog was taken 24 hr before the last endurance run. The heart rate and basal body temperature was determined for each test dog prior to the last long endurance run. Exercise Regimen: Each group of dogs were put through two different types of exercise programs on a weekly basis. The exercise regimen consisted of both sprint (short runs) and endurance (long runs) type work during the 90 day period. Each group of dogs were put through a simulated amount of work that would be equal to competing in an AKC Junior Hunt Test (American […] Club) and also once a week the dogs were put through a simulated endurance run. Each group of test dogs ran the AKC Hunt Test workout 26 times during the 13 wk study which was 2 times per week. During each week, each group ran the test 2 times with 1 day rest between runs. The AKC Hunt Test workout during the initial week amounted to two days of 6 consecutive sprint type retrieves for a minimum of 100 yd each way making a total of 1200 yd per day or 2400 yd per wk. The dogs brought back a bumper (equivalent to a duck or mark) to the handler during the exercise. […] The length of time involved in the intense exercise simulating the AKC Hunt Test was approximately 10 to 15 minutes per dog each of the short run days and was equal for both treatments. The rest time between retrieves (sprints) in a set during the simulated weekly AKC Hunt Test was equal for all dogs. Performance and Recovery Time: An Actical monitor (Philips Respironics) was worn around the neck of each dog on a collar and utilized to evaluate the amount of movement (measured total movements and intensity) for each dog for the purpose of evaluating equal work between treatments and also to evaluate the individual work intensity while completing the daily retrieves. Each dog wore the Actical monitor for each long run and wore the Actical monitor for the final 15 mile run. The Actical monitor data was downloaded to a computer for evaluation. Statistical Methods: GraphPad Prism 6.0 was used to compare means between groups for run time, food intake, body weight, and changes in blood chemistry using an unpaired t-test. Results were considered significant if a p-value of 0.05 was obtained. JMP 10.0.2 was used to create a mixed model for long runs, short runs, body composition, and blood chemistry.

[3] = Ex.2 part three, 250 mg/d, 6.5 mph (VO2 max)
[4] = Ex.2 part three, 250 mg/d, 50% VO2 max (4 mph, 30 min)
[5] = combined speeds 4.0 and 6.5 (50% VO2 Max and VO2 Max), diet main effect, both genders
[6] = combined speeds 4.0 and 6.5 (50% VO2 Max and VO2 Max), female dogs
[7] = combined speeds 4.0 and 6.5 (50% VO2 Max and VO2 Max), male dogs
[8] = treadmill speed 4 for 30 min (50% VO2 Max), diet main effect, both genders
[9] = treadmill speed 4 for 30 min (50% VO2 Max), female dogs
[10] = treadmill speed 4 for 30 min (50% VO2 Max), male dogs
[11] = treadmill speed 6.5 for 15 min (VO2 Max), diet main effect, both genders
[12] = treadmill speed 6.5 for 15 min (VO2 Max), female dogs
[13] = treadmill speed 6.5 for 15 min (VO2 Max), male dogs

C[N+](C)(C)C[C@H](O)CC(=O)[O-] [L-carnitine]
Additional heat expenditure vs non-L-carnitine diet ([1]; Ex.2 part three, 250 mg/d, female running at 50% of VO2 Max): 122 kcal/kg BW^0.75/d
Max energy expenditure [1, 3]: 961 kcal/kgBW^0.75/d
Mean energy expenditure [1, 3]: 815 kcal/kgBW^0.75/d
Max energy expenditure [1, 4]: 794 kcal/kg^0.75/d
Mean energy expenditure [1, 4]: 598 kcal/kg^0.75/d
Max and mean energy expenditure vs low carnitine dogs ([1]; Ex.2 part three, 250 mg/d, males, Tables 35 and 36): not significantly different
Quantity of low Carnitine basal food saved ([1]; Ex.2 part three, 250 mg/d, working female running at 50% VO2 Max (4 mph) for one hour): 15.18 g
Max EE [1, 5]: 793 Kcal/Kg^0.75/d
Mean EE [1, 5]: 675 Kcal/Kg^0.75/d
Max EE [1, 6]: 838 Kcal/Kg^0.75/d
Mean EE [1, 6]: 679 Kcal/Kg^0.75/d
Max EE [1, 7]: 748 Kcal/Kg^0.75/d
Mean EE [1, 7]: 671 Kcal/Kg^0.75/d
Max EE [1, 8]: 716 Kcal/Kg^0.75/d
Mean EE [1, 8]: 576 Kcal/Kg^0.75/d
Max EE [1, 9]: 794 a Kcal/Kg^0.75/d
Mean EE [1, 9]: 598 a Kcal/Kg^0.75/d
Max EE [1, 10]: 637 ab Kcal/Kg^0.75/d
Mean EE [1, 10]: 554 ab Kcal/Kg^0.75/d
Max EE [1, 11]: 909 Kcal/Kg^0.75/d
Mean EE [1, 11]: 801 Kcal/Kg^0.75/d
Max EE [1, 12]: 961 Kcal/Kg^0.75/d
Mean EE [1, 12]: 815 Kcal/Kg^0.75/d
Max EE [1, 13]: 858 Kcal/Kg^0.75/d
Mean EE [1, 13]: 788 Kcal/Kg^0.75/d
Activity short runs, APM/lb Mean ([2]; Week 3, both sexes): 1479 Movements/Mile/LB BW
Activity short runs, APM/lb Mean ([2]; Week 3, females): 1636 Movements/Mile/LB BW
Activity short runs, APM/lb Mean ([2]; Week 3, males): 1338 Movements/Mile/LB BW
Activity short runs, APM/lb Mean ([2]; Week 4, both sexes): 1402 Movements/Mile/LB BW
Activity short runs, APM/lb Mean ([2]; Week 4, females): 1608 Movements/Mile/LB BW
Activity short runs, APM/lb Mean ([2]; Week 4, males): 1234 Movements/Mile/LB BW
Activity short runs, APM/lb Mean ([2]; Week 5, both sexes): 1314 Movements/Mile/LB BW
Activity short runs, APM/lb Mean ([2]; Week 5, females): 1362 Movements/Mile/LB BW
Activity short runs, APM/lb Mean ([2]; Week 5, males): 1275 Movements/Mile/LB BW
Activity short runs, APM/lb Mean ([2]; Week 6, both sexes): 1375 Movements/Mile/LB BW
Activity short runs, APM/lb Mean ([2]; Week 6, females): 1340 Movements/Mile/LB BW
Activity short runs, APM/lb Mean ([2]; Week 6, males): 1403 Movements/Mile/LB BW
Activity short runs, APM/lb Mean ([2]; Week 7, both sexes): 1380 Movements/Mile/LB BW
Activity short runs, APM/lb Mean ([2]; Week 7, females): 1347 Movements/Mile/LB BW
Activity short runs, APM/lb Mean ([2]; Week 7, males): 1407 Movements/Mile/LB BW
Activity short runs, APM/lb Mean ([2]; Week 8, both sexes): 1249 Movements/Mile/LB BW
Activity short runs, APM/lb Mean ([2]; Week 8, females): 1330 Movements/Mile/LB BW
Activity short runs, APM/lb Mean ([2]; Week 8, males): 1183 Movements/Mile/LB BW
Activity short runs, APM/lb Mean ([2]; Week 9, both sexes): 1234 Movements/Mile/LB BW
Activity short runs, APM/lb Mean ([2]; Week 9, females): 1388 Movements/Mile/LB BW
Activity short runs, APM/lb Mean ([2]; Week 9, males): 1108 Movements/Mile/LB BW
Activity short runs, APM/lb Mean ([2]; Week 10, both sexes): 1114 Movements/Mile/LB BW
Activity short runs, APM/lb Mean ([2]; Week 10, females): 1222 Movements/Mile/LB BW
Activity short runs, APM/lb Mean ([2]; Week 10, males): 1026 Movements/Mile/LB BW
Activity short runs, APM/lb Mean ([2]; Week 11, both sexes): 1111 Movements/Mile/LB BW
Activity short runs, APM/lb Mean ([2]; Week 11, females): 1128 Movements/Mile/LB BW
Activity short runs, APM/lb Mean ([2]; Week 11, males): 1098 Movements/Mile/LB BW
Activity short runs, APM/lb Mean ([2]; Week 12, both sexes): 2500 Movements/Mile/LB BW
Activity short runs, APM/lb Mean ([2]; Week 12, females): 2804 Movements/Mile/LB BW
Activity short runs, APM/lb Mean ([2]; Week 12, males): 2251 Movements/Mile/LB BW
Activity short runs, APM/lb Mean ([2]; Week 13, both sexes): 1741 Movements/Mile/LB BW
Activity short runs, APM/lb Mean ([2]; Week 13, females): 1661 Movements/Mile/LB BW
Activity short runs, APM/lb Mean ([2]; Week 13, males): 1806 Movements/Mile/LB BW
Activity short runs, Least Sq Mean ([2]; both sexes): 1451 Movements/Mile/LB BW and 1451.0357 Movements/Mile/LB BW
Activity short runs, Least Sq Mean ([2]; females): 1522 Movements/Mile/LB BW and 1528.6226 Movements/Mile/LB BW
Activity short runs, Least Sq Mean ([2]; males): 1373.4487 Movements/Mile/LB BW
